The assay relates to BDF1 mice, P388 leukemia ip, median survival T/C. As to the kind of experiment: NCI In Vivo Anticancer Drug Screen. Data for tumor model P388 Leukemia (intraperitoneal) in B6D2F1 (BDF1) mice. Conditions: endpoint: median survival time, higher = longer survival. Summed up:
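Vehicle-dosed animals serve as the reference; survival of compound-dosed, tumour-implanted mice is divided by it.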

[1] abbreviates: dose: 25.0 mg/kg/injection, schedule: Q01DX009 (ip), vehicle: Klucel (hydroxypropylcellulose) (HPC).
The mark [2] stands for this setting: dose: 50.0 mg/kg/injection, schedule: Q01DX009 (ip), vehicle: Klucel (hydroxypropylcellulose) (HPC).
Where [3] appears, read: dose: 50.0 mg/kg/injection, schedule: Q04DX003 (ip), vehicle: saline.
[4] abbreviates: dose: 75.0 mg/kg/injection, schedule: Q04DX003 (ip), vehicle: saline.
Setting [5] is: dose: 100.0 mg/kg/injection, schedule: Q01DX009 (ip), vehicle: Klucel (hydroxypropylcellulose) (HPC).
Where [6] appears, read: dose: 50.0 mg/kg/injection, schedule: Q01DX009 (ip), vehicle: saline with Tween-80.
Where [7] appears, read: dose: 100.0 mg/kg/injection, schedule: Q01DX009 (ip), vehicle: saline with Tween-80.
Where [8] appears, read: dose: 200.0 mg/kg/injection, schedule: Q01DX009 (ip), vehicle: saline with Tween-80.
[9] abbreviates: dose: 200.0 mg/kg/injection, schedule: Q01DX009 (ip), vehicle: Klucel (hydroxypropylcellulose) (HPC).
Setting [10] is: dose: 400.0 mg/kg/injection, schedule: Q01DX009 (ip), vehicle: Klucel (hydroxypropylcellulose) (HPC).
Setting [11] is: dose: 100.0 mg/kg/injection, schedule: Q04DX003 (ip), vehicle: saline with Tween-80.
Setting [12] is: dose: 200.0 mg/kg/injection, schedule: Q04DX003 (ip), vehicle: saline with Tween-80.
Where [13] appears, read: dose: 400.0 mg/kg/injection, schedule: Q04DX003 (ip), vehicle: saline with Tween-80.
[14] abbreviates: dose: 50.0 mg/kg/injection, schedule: Q04DX003 (ip), vehicle: Klucel (hydroxypropylcellulose) (HPC).
Setting [15] is: dose: 100.0 mg/kg/injection, schedule: Q04DX003 (ip), vehicle: Klucel (hydroxypropylcellulose) (HPC).
Where [16] appears, read: dose: 200.0 mg/kg/injection, schedule: Q04DX003 (ip), vehicle: Klucel (hydroxypropylcellulose) (HPC).
[17] abbreviates: dose: 50.0 mg/kg/injection, schedule: Q04DX003 (ip), vehicle: saline with Tween-80.

SMILES strings stand for the structures. Values joined by “and” are separate entries in the source; they are usually repeats but may differ in a detail not shown here. Equal values may be shown once. Toxic doses and inconclusive results are not listed.

Consider 20 molecules from PubChem BioAssay AID328 (DTP/NCI, 2004).

For `O=C(CSCSCC(=O)Nc1ccc(C2=NCCN2)cc1)Nc1ccc(C2=NCCN2)cc1`, the T/C is, setting by setting: (dose: 10.0 mg/kg/injection, schedule: Q01DX009 (ip), vehicle: Klucel (hydroxypropylcellulose) (HPC)) 91 % of control; (dose: 12.5 mg/kg/injection, schedule: Q04DX003 (ip), vehicle: saline) 100 % of control; under setting [1], 100 % of control and 115 % of control; under setting [2], 165 % of control; under setting [3], 104 % of control and 109 % of control; under setting [4], 104 % of control. Further, the T/C is 90 % of control under setting [5]; 114 % of control (dose: 100.0 mg/kg/injection, schedule: Q04DX003 (ip), vehicle: saline); 157 % of control (dose: 135.0 mg/kg/injection, schedule: Q04DX003 (ip), vehicle: saline); 157 % of control (dose: 200.0 mg/kg/injection, schedule: Q04DX003 (ip), vehicle: saline).

For `O=C(O)/C=C/c1ccc(Cl)cc1Cl`, the T/C was 95 % of control under setting [6], 90 % of control under setting [7] and 90 % of control under setting [8].

As for `C=C(C)CP(=O)(c1ccccc1)c1ccccc1`, the T/C under setting [6] is 96 % of control, the T/C under setting [7] was 100 % of control and the T/C under setting [8] was 91 % of control.

Turning to `CCc1nnc2n1N=C(c1ccc(-c3ccccc3)cc1)CS2`, the T/C is, setting by setting: under setting [6], 90 % of control; under setting [7], 89 % of control; under setting [8], 90 % of control.

Consider `CC(C)CCCC(C)C1CCC2C3CCC45CC4C(=O)CCC5(C)C3CCC12C` (stereo not drawn), for which the T/C runs as follows: (dose: 100.0 mg/kg/injection, schedule: Q04DX003 (ip), vehicle: alcohol) 115 % of control; (dose: 200.0 mg/kg/injection, schedule: Q04DX003 (ip), vehicle: alcohol) 100 % of control; (dose: 400.0 mg/kg/injection, schedule: Q04DX003 (ip), vehicle: alcohol) 100 % of control.

On to `CCCCCCC(=O)CCCC(C)CCCC(C)C` (stereo not drawn), for which the T/C reads like this: under setting [5], 100 % of control; under setting [9], 109 % of control; under setting [10], 118 % of control.

Consider `Cc1ccc(NC(=O)COc2cc(Cl)c(Cl)cc2Cl)cc1C`, for which the T/C is, setting by setting: under setting [11], 90 % of control; under setting [12], 90 % of control; under setting [13], 86 % of control.

For the molecule `COc1ccc(C(=O)CC(c2ccc3c(c2)OCO3)c2c(O)c3ccccc3oc2=O)cc1OC` (stereo not drawn), the T/C (dose: 25.0 mg/kg/injection, schedule: Q01DX009 (ip), vehicle: saline with Tween-80) was 91 % of control; the T/C under setting [6] was 116 % of control; the T/C (dose: 75.0 mg/kg/injection, schedule: Q01DX009 (ip), vehicle: saline with Tween-80) is 88 % of control; the T/C under setting [7] was 97 % of control and 123 % of control; the T/C (dose: 150.0 mg/kg/injection, schedule: Q01DX009 (ip), vehicle: saline with Tween-80) was 101 % of control; the T/C under setting [8] was 87 % of control.

Take `O=C(O)/C=C/c1c[nH]c(=O)[nH]c1=O`: the T/C is, setting by setting: (dose: 25.0 mg/kg/injection, schedule: Q04DX003 (ip), vehicle: Klucel (hydroxypropylcellulose) (HPC)) 101 % of control; under setting [14], 101 % of control; under setting [15], 115 % of control.

In the case of `O=C(Nc1ccccc1Cl)OCC#CCOC(=O)Nc1ccccc1Cl`, the T/C by setting is: (dose: 100.0 mg/kg/injection, schedule: Q04DX003 (ip), vehicle: saline sonified) 90 % of control; (dose: 200.0 mg/kg/injection, schedule: Q04DX003 (ip), vehicle: saline sonified) 95 % of control; (dose: 400.0 mg/kg/injection, schedule: Q04DX003 (ip), vehicle: saline sonified) 86 % of control.

For the molecule `CCCCCCCCSc1ncnc2nc[nH]c12`, the T/C reads like this: under setting [7], 108 % of control; under setting [11], 100 % of control; under setting [8], 87 % of control; under setting [12], 100 % of control; (dose: 400.0 mg/kg/injection, schedule: Q01DX009 (ip), vehicle: saline with Tween-80) 108 % of control; under setting [13], 100 % of control.

On to `CC(=O)NC1=C(N2CC2C)C(=O)C(NC(C)=O)=C(N2CC2C)C1=O` (stereo not drawn), for which the T/C (dose: 0.62 mg/kg/injection, schedule: Q01DX009 (ip), vehicle: saline) is 119 % of control; the T/C (dose: 1.25 mg/kg/injection, schedule: Q01DX009 (ip), vehicle: saline) is 114 % of control and 115 % of control; the T/C (dose: 4.4 mg/kg/injection, schedule: Q04DX003 (ip), vehicle: saline) was 118 % of control; the T/C (dose: 5.0 mg/kg/injection, schedule: Q01DX009 (ip), vehicle: saline) is 233 % of control and 215 % of control; the T/C (dose: 5.56 mg/kg/injection, schedule: Q01DX009 (ip), vehicle: saline) was 159 % of control; the T/C (dose: 6.6 mg/kg/injection, schedule: Q04DX003 (ip), vehicle: saline) is 104 % of control. The T/C reads like this: (dose: 8.33 mg/kg/injection, schedule: Q01DX009 (ip), vehicle: saline) 236 % of control; (dose: 11.0 mg/kg/injection, schedule: Q04DX003 (ip), vehicle: saline) 166 % of control and 215 % of control; (dose: 12.5 mg/kg/injection, schedule: Q01DX009 (ip), vehicle: saline) 163 % of control; (dose: 15.0 mg/kg/injection, schedule: Q04DX003 (ip), vehicle: saline) 163 % of control; (dose: 16.5 mg/kg/injection, schedule: Q04DX003 (ip), vehicle: saline) 230 % of control and 222 % of control; (dose: 18.7 mg/kg/injection, schedule: Q01DX009 (ip), vehicle: saline) 90 % of control. Further, the T/C by setting is: (dose: 25.0 mg/kg/injection, schedule: Q04DX003 (ip), vehicle: saline) 255 % of control and 110 % of control; (dose: 37.5 mg/kg/injection, schedule: Q04DX003 (ip), vehicle: saline) 183 % of control; under setting [3], 86 % of control and 100 % of control.

Take `Cc1ccc(C(=O)/C=C/c2ccccc2O)cc1`: the T/C runs as follows: under setting [2], 99 % of control; under setting [5], 109 % of control; under setting [9], 107 % of control; under setting [10], 101 % of control.

Regarding `NS(=O)(=O)c1cc([N+](=O)[O-])ccc1Cl`, the T/C was 100 % of control under setting [15] and 108 % of control under setting [16].

Take `CCN(CC)c1c(C)nnc2c(-c3ccccc3)cnn12`: the T/C under setting [17] was 108 % of control, the T/C under setting [11] is 100 % of control and the T/C under setting [12] is 104 % of control.

`O=C(O)c1c(-c2ccccc2)[nH]c2cc(Cl)ccc2c1=O`: the T/C is 95 % of control (dose: 6.25 mg/kg/injection, schedule: Q01DX009 (ip), vehicle: Klucel (hydroxypropylcellulose) (HPC)); 90 % of control and 109 % of control (dose: 12.5 mg/kg/injection, schedule: Q01DX009 (ip), vehicle: Klucel (hydroxypropylcellulose) (HPC)); 100 % of control under setting [1]; 95 % of control under setting [2]; 114 % of control under setting [6]; 122 % of control under setting [17]. The T/C reads like this: (dose: 90.0 mg/kg/injection, schedule: Q04DX003 (ip), vehicle: saline with Tween-80) 109 % of control; under setting [7], 118 % of control; under setting [11], 113 % of control; (dose: 133.0 mg/kg/injection, schedule: Q04DX003 (ip), vehicle: saline with Tween-80) 112 % of control and 113 % of control; under setting [8], 100 % of control; under setting [12], 108 % of control and 109 % of control. Also, the T/C (dose: 300.0 mg/kg/injection, schedule: Q04DX003 (ip), vehicle: saline with Tween-80) was 104 % of control.

Turning to `O=C(C/C(=N\C(=S)Nc1cc(C(F)(F)F)ccc1Cl)NO)N1CCCC1`, the T/C under setting [6] was 110 % of control.

For `c1ccc(CC(Cc2ccccc2)c2nc3ccccc3s2)cc1`, the T/C was 100 % of control under setting [4]; 100 % of control (dose: 150.0 mg/kg/injection, schedule: Q04DX003 (ip), vehicle: saline); 95 % of control (dose: 300.0 mg/kg/injection, schedule: Q04DX003 (ip), vehicle: saline).

As to `OCc1ccccc1Sc1ccccc1CO`, the T/C by setting is: under setting [6], 91 % of control; under setting [7], 100 % of control; under setting [8], 99 % of control.

Turning to `O=C(O)C(CSC(c1ccccc1)c1ccccc1)N1C(=O)c2ccccc2C1=O` (stereo not drawn), the T/C was 100 % of control under setting [14], 104 % of control under setting [15] and 95 % of control under setting [16].
